We go through eight compounds from patent US20080070859A1, “Compounds resistant to metabolic deactivation and methods of use” (priority 2002, published 2008).

Where only a bound is given, the exact number is not on record here.

In one data set the test system is MOLT. The data set is described as follows: MTT assay of cell viability, MOLT. In kind it is cell-based. As to conditions: 5 days at 37 C. The procedure:
(§1) The in vitro cytotoxicities of thioaminal prodrugs of Cordycepin were compared to the parent drug Cordycepin using a standard MTT assay of cell viability (Hansen et al. (1989) J. Immunol. Meth. 119:203-10). Leukemia cell lines growing in the exponential phase (MOLT, […], and CEM/Cl) were plated at a final concentration of 1×10^5 cells/ml and exposed to serial dilutions of the Cordycepin prodrugs. In a subset of the experiments (denoted by “+”), the cells were preincubated with 1 μM of the ADA inhibitor 2′-deoxycoformycin for 30 minutes prior to addition of prodrug. Cell viability was determined after incubation for 5 days at 37 C by addition of 3-(4,5-dimethylthizaol-2-yl)-2,5-diplenyl-tetrazolium dye. IC50 was defined as the drug concentration that reduced cell viability 50% in comparison with the appropriate control.
(In general: Tetrazolium assays rely on reduction of a dye to a coloured formazan, in cell work by metabolically active cells.)

Another data set relates to HL-60. The data set is described as follows: MTT assay of cell viability, HL-60. In kind it is cell-based. The settings on record: 5 days at 37 C. The procedure: as §1
Another data set deals with CEM/Cl. The experiment in a line: MTT assay of cell viability, CEM/Cl. As to conditions: 5 days at 37 C. In kind it is cell-based. Here is the method:
as §1

A short description of data set [1]: HPLC stability analysis: hydrolysis of the prodrug to Cordycepin in phosphate buffer. In kind it is physicochemical. The settings on record: 0.63 mM in 30 mM phosphate buffer (pH 7.3) containing 5% DMSO, 37 C; for half-life at 0.63 mM: read-out: t½ (time point at which half of the Cordycepin prodrug was hydrolysed to Cordycepin) (converted). The procedure: To analyze the half-life of thioaminal prodrugs, HPLC stability analysis was performed on the following Cordycepin prodrugs. Solutions (0.63 mM) of each of the following compounds was prepared in 30 mM phosphate buffer (pH 7.3) containing 5% DMSO and incubated at 37 C.

Data set [2] has as its system Leukemia cell lines (MOLT, HL-69, and CEM/Cl). The data set is described as follows: MTT assay of cell viability, overall comparison with Cordycepin. The class given is cell-based. The settings on record: both in the presence and absence of ADA inhibitor. Here is the method:
as §1

Data set [3] concerns Leukemia cell lines (MOLT, and CEM/Cl). The data set is described as above. The class given is cell-based. As to conditions: absence vs presence of ADA inhibitor 2′-deoxycoformycin. Here is the method:
as §1

The mark [4] stands for this setting: + (preincubated with 1 μM 2′-deoxycoformycin for 30 minutes).
The mark [5] stands for this setting: HL-60, + (preincubated with 1 μM 2′-deoxycoformycin for 30 minutes).
Where [6] appears, read: Homo sapiens, 120 h, HL-60, − (no ADA inhibitor).

For the compound `Nc1ncnc2c1ncn2[C@@H]1O[C@H](CO)C[C@H]1O` [Cordycepin, 3′-deoxyadenosine, reference compound], the IC50 in the data set with MOLT (120 h, − (no ADA inhibitor)) amounted to 80 µM; with MOLT (setting [4]), 21 µM; with HL-60 (setting [5]) it was 9 µM; in the data set on HL-60 (setting [6]), 42 µM; in the data set on CEM/Cl (120 h, − (no ADA inhibitor)), 27 µM; in the data set on CEM/Cl (setting [4]), 2 µM.

In the case of `OC[C@@H]1C[C@@H](O)[C@H](n2cnc3c(NCSc4ccccc4)ncnc32)O1` [3b, 6-N-(phenylthiol)methyl-Cordycepin], the half-life at 0.63 mM in data set [1] was 15 h. Besides, the IC50 came to 18 µM with MOLT (120 h, − (no ADA inhibitor)); 16 µM in the data set with MOLT (setting [4]); 7 µM in the data set with HL-60 (setting [5]); 24 µM in the data set on HL-60 (setting [6]); 5.5 µM in the data set with CEM/Cl (120 h, − (no ADA inhibitor)); 2 µM with CEM/Cl (setting [4]). The “cytotoxic potency compared to Cordycepin” value in data set [2] was “more potent cytotoxic agents than Cordycepin”. In data set [3], the “attenuation of activity in the absence of ADA inhibitor” value is “not significantly attenuated”.

As for `Cc1ccc(SCNc2ncnc3c2ncn3[C@@H]2O[C@H](CO)C[C@H]2O)cc1` [4b], the IC50 in the data set with MOLT (120 h, − (no ADA inhibitor)) amounted to 35 µM; in the data set on MOLT (setting [4]) it was 30 µM; with HL-60 (setting [5]) it was 17 µM; in the data set on HL-60 (setting [6]), 50 µM; in the data set with CEM/Cl (120 h, − (no ADA inhibitor)) it was 24 µM; in the data set with CEM/Cl (setting [4]), 5 µM. Also, in data set [2], the “cytotoxic potency compared to Cordycepin” value is recorded as “more potent cytotoxic agents than Cordycepin”.

For “6-N-(4-N-acetylbenzylthio)methyl-Cordycepin [8b]”, the IC50 amounted to 3 µM in the data set with CEM/Cl (setting [4]) and 15 µM in the data set with CEM/Cl (− (no ADA inhibitor)).

With `OCCSCNc1ncnc2c1ncn2[C@@H]1O[C@H](CO)C[C@H]1O` [2b, 6-N-(2-hydroxyethanethio)methyl-Cordycepin], the “t½ (time point at which half of the Cordycepin prodrug was hydrolysed to Cordycepin)” value in data set [1] is over 72 h.

In the case of `O=[N+]([O-])c1ccc(CSCNc2ncnc3c2ncn3[C@@H]2O[C@H](CO)C[C@H]2O)cc1` [7b, 6-N-(4-nitrobenzylthio)methyl-Cordycepin], the “t½ (time point at which half of the Cordycepin prodrug was hydrolysed to Cordycepin)” value in data set [1] was 1 h.

On to `CCSCNc1ncnc2c1ncn2[C@@H]1O[C@H](CO)C[C@H]1O` [1b, 6-N-(Ethanethio)methyl-Cordycepin], for which the “t½ (time point at which half of the Cordycepin prodrug was hydrolysed to Cordycepin)” value in data set [1] is over 72 h.

As for `COc1ccc(SCNc2ncnc3c2ncn3[C@@H]2O[C@H](CO)C[C@H]2O)cc1` [5b, 6-N-(4-methoxybenzothio)methyl-Cordycepin], in data set [1], the half-life at 0.63 mM was 17 h. The IC50 in the data set on CEM/Cl (120 h, − (no ADA inhibitor)) was determined as 15 µM; in the data set on CEM/Cl (setting [4]), 3 µM. In addition, in data set [2], the “cytotoxic potency compared to Cordycepin” value is recorded as “more potent cytotoxic agents than Cordycepin”.

In general, IC50 refers to the concentration at which inhibition is half-maximal.
